Results on one compound are retold here after PMC3689638, “Cell cycle-dependent activity of the novel dual PI3K-MTORC1/2 inhibitor NVP-BGT226 in acute leukemia” (Molecular Cancer, 2013).

The subject of this assay is AKT phosphorylation (Ser473, Thr308). Put plainly: western immunoblot of AKT signaling, MOLM14 or K562 cells. It is filed as cell-based, human. The text has this: For comparative analysis, additional lysates from cells treated with an ABL1 or FLT3 tyrosine kinase inhibitor (imatinib for K562 BCR-ABL1 cells, sunitinib for MOLM14 FLT3 ITD cells) as well as rapamycin were used.
Rabbit anti-panAKT, panFLT3, panABL1 or anti-cleaved caspase 3 antibodies were used at a 1:500 to 1:1000 dilution. Rabbit anti-phospho-AKT antibodies detecting phosphorylated isoforms of T308-AKT, S473-AKT, S807/811-RB, S575-ULK1, T389-p70S6K, Y694-STAT5, FLT3, ABL1 or T202/Y204-ERK1/2 were used at a 1:250 to 1:1000 dilution. An anti-actin mouse monoclonal antibody was used as a loading control. All antibodies, if not otherwise indicated, were purchased from Cell Signaling Technology.
Cell pellets were lysed with 100 to 150 μl of protein lysis buffer (50 mmol/L Tris, 150 mmol/L NaCl, 1% NP40, 0.25% deoxycholate with added inhibitors aprotinin, AEBSF, leupeptin, pepstatin, sodium orthovanadate, and sodium pyruvate, respectively phosphatase inhibitor cocktails „2“ and „1“ or „3“ (Sigma, St. Louis, MO). Protein from cell lysates (75 to 200 μg protein) was used for whole cell protein analysis after denaturing by Western immunoblot assays using a BioRad Criterion system. Nonspecific binding was blocked by incubating the blots in nonfat dry milk or BSA. Primary antibodies were incubated for one hour or over night, followed by several washes of Tris-buffered saline (TBS) containing 0.005% Tween 20. The appropriate secondary antibody was applied for 30‘, followed by several washes. Antibody-reactive proteins were detected using a LI-COR Odyssey® fluorescence optical system.
For orientation: A western blot detects proteins with antibodies after separation by electrophoresis.

Take `CO[C@H]1C[C@@H]2CC[C@@H](C)[C@@](O)(O2)C(=O)C(=O)N2CCCC[C@H]2C(=O)O[C@H]([C@H](C)C[C@@H]2CC[C@@H](O)[C@H](OC)C2)CC(=O)[C@H](C)/C=C(\C)[C@@H](O)[C@@H](OC)C(=O)[C@H](C)C[C@H](C)/C=C/C=C/C=C/1C` [rapamycin]: the “phosphorylation of AKT (immunoblot)” value was “did not suppress AKT phosphorylation”.
